Assay results reported in patent US10981932B2, “Macrocyclic indole derivatives” (Bayer Aktiengesellschaft, priority 2016, dated 2021).
Where “and” joins values, the source holds several entries; their conditions need not be identical. Equal entries are not always repeated. Structures can show the parent of a compound that is named as a salt. Where two headings read alike, the source gives them in different places.

Experiments:
MCL-1 = MCL-1 (Homo sapiens, UniProt Q07820); assay: Protein-protein interaction assay MCL-1/Noxa BH3 peptide (MCL-1 assay), TR-FRET; format: binding; conditions: MBP-MCL-1 / Noxa BH3-derived peptide, median
Chain of MCL-1 (Q07820 whole entry): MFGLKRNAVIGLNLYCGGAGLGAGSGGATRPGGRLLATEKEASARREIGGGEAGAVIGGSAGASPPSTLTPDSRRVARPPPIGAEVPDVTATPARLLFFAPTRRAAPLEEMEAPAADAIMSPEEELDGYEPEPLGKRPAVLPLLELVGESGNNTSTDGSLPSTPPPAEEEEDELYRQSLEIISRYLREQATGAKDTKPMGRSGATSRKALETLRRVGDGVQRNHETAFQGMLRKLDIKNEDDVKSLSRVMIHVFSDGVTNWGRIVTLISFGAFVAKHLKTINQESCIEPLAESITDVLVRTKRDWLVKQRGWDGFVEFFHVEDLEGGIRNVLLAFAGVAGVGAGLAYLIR
Procedure, shortened: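 Displacement of the biotinylated Noxa BH3 peptide from MBP-tagged human MCL-1 (1 nM) is detected by time-resolved FRET. Compounds are tested in duplicate across eleven concentrations up to 20 μM, incubated 1 h at 22 °C and overnight at 4 °C, and IC50 is fitted with a four-parameter equation.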

SUDHL5 [1] = assay: Induction of caspase-3/7 activity (Caspase-Glo 3/7), SUDHL5; format: cell-based; conditions: caspase-3/7 induction, SUDHL5 cells, 3 h treatment; median
Procedure, shortened: (§1)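 Caspase-Glo 3/7 luminescence, 3 h compound exposure, 37 °C, humidified. Minus medium-only blank. EC50 fit: C0=1, plateau = reference max induction.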

SUDHL10 [2] = assay: Induction of cytotoxicity (CellTiter-Glo, 5 h), SUDHL10
SUDHL10 [3] = assay: Induction of caspase-3/7 activity (Caspase-Glo 3/7), SUDHL10; format: cell-based; conditions: caspase-3/7 induction, SUDHL10 cells, 3 h treatment, median
Procedure, shortened: as §1

MV-4-11 = assay: Anti-proliferative effect (CellTiter-Glo, 72 h), MV-4-11; format: cell-based; conditions: MV-4-11 cells, median, read-out: IC50 antiproliferation assay MV-4-11 [M] (median)
Procedure, shortened: (§2)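 Viable cells quantified with CellTiter-Glo after 72 h at 37 °C; rim wells excluded; day 0 plate as baseline.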

SUDHL5 [4] = assay: Induction of cytotoxicity (CellTiter-Glo, 5 h), SUDHL5; conditions: read-out: Cytotox SUDHL5 [M] (median), SUDHL5 cells, cytotoxicity induction, CellTiter-Glo, median
A2780 = assay: Anti-proliferative effect (CellTiter-Glo, 72 h), A2780; format: cell-based; conditions: A2780 cells, median, read-out: IC50 antiproliferation assay A2780 [M] (median)
Procedure, shortened: as §2

SUDHL5 [5] = assay: Anti-proliferative effect (CellTiter-Glo, 72 h), SUDHL5; format: cell-based; conditions: SUDHL5 cells, antiproliferation, median, read-out: Antiproli SUDHL5 [M] (median)
Procedure, shortened: as §2

[6] = read-out: Cytotox SUDHL10 [M] (median), SUDHL10 cells, cytotoxicity induction, CellTiter-Glo, 5 h, median
[7] = Homo sapiens, SU-DHL10, 5 h, read-out: Cytotox SUDHL10 [M] (median), SUDHL10 cells, cytotoxicity induction, CellTiter-Glo, 5 h, median
[8] = Homo sapiens, SU-DHL-5, 72 h, 72 h
[9] = read-out: Cytotox SUDHL10 [M] (median), SUDHL10 cells, cytotoxicity induction, CellTiter-Glo, 5 h incubation, median

IC50 (MCL-1) [µM] | EC50 (SUDHL5 [1]) [µM] | EC50 (SUDHL10 [3]) [µM] | IC50 (MV-4-11) [M] | IC50 (A2780) [M] | IC50 (SUDHL5 [5]; 72 h) [M] | IC50 (A2780; Homo sapiens, A2780, 72 h) [M] | EC50 (SUDHL10 [3]; Homo sapiens, SU-DHL10, 3 h) [µM] | IC50 (MV-4-11; Homo sapiens, MV4-11, 72 h) [M] | IC50 (SUDHL5 [5]; [8]) [M] | IC50 (SUDHL5 [5]; 72 h incubation) [M] | IC50 (SUDHL5 [5]; Homo sapiens, SU-DHL-5, 72 h, 72 h incubation) [M] | Compound | IC50 (SUDHL10 [2]; [6]) [M] | IC50 (SUDHL5 [4]; 5 h) | IC50 (SUDHL10 [2]; [7]) [M] | IC50 (SUDHL10 [2]; [9]) [M] | IC50 (SUDHL5 [4]; 5 h incubation) [M] | IC50 (SUDHL10 [2]; Homo sapiens, SU-DHL10, 5 h, read-out: Cytotox SUDHL10 [M] (median), SUDHL10 cells, cytotoxicity induction, CellTiter-Glo, 5 h incubation, median)
0.106 | > 33 | > 33 | 1.89e-05 | 2.23e-05 | 1.05e-05 |  |  |  |  |  |  | CCc1nn(C)c2c1-c1cccc3c(CCCOc4cccc5cc(F)ccc45)c(C(=O)O)n(c13)CCCCOC2 (single isomer, unassigned) [Example 289, (−)-3-ethyl-7-{3-[(6-fluoronaphthalen-1-yl)oxy]propyl}-1-methyl-1,10,11,12,13,15-hexahydropyrazolo[4′,3′:9,10][1,6]oxazacycloundecino[8,7,6-hi]indole-8-carboxylic Acid] | > 3.3e-05 | 2.9e-05 M and > 3.3e-05 M |  |  |  | 
0.000676 | 0.309 | 0.947 | 2.08e-06 |  | 6.43e-07 | 1.08e-05 |  |  |  |  |  | Cc1ccc2c(CCCOc3cccc4cc(F)ccc34)c(C(=O)O)n3c2c1-c1c(nn(CCN2CCOCC2)c1C)COCCCC3 (single isomer, unassigned) [Example 293, (+)-7-{3-[(6-fluoronaphthalen-1-yl)oxy]propyl}-3,4-dimethyl-2-[2-(morpholin-4-yl)ethyl]-2,10,11,12,13,15-hexahydropyrazolo[4′,3′:9,10][1,6]oxazacycloundecino[8,7,6-hi]indole-8-carboxylic acid-N-ethylethanamine Salt] | 9.88e-07 | 4.23e-07 M |  |  |  | 
0.00579 | 6.95 | 10.8 | 1.53e-05 | 1.88e-05 | 5.96e-06 |  |  |  |  |  |  | Cc1ccc2c(CCCOc3cccc4cc(F)ccc34)c(C(=O)O)n3c2c1-c1c(nn(CCN2CCOCC2)c1C)COCCCC3 (single isomer, unassigned) [Example 294, (−)-7-{3-[(6-fluoronaphthalen-1-yl)oxy]propyl}-3,4-dimethyl-2-[2-(morpholin-4-yl)ethyl]-2,10,11,12,13,15-hexahydropyrazolo[4′,3′:9,10][1,6]oxazacycloundecino[8,7,6-hi]indole-8-carboxylic acid-N-ethylethanamine Salt] | 1.08e-05 | 5.95e-06 M |  |  |  | 
0.00331 | 3.23 |  |  |  |  | 2.07e-05 | 18.7 | 1.52e-05 | 5.2e-06 |  |  | Cc1c2c(nn1C)COCCCCn1c(C(=O)O)c(CCCOc3cccc4cc(Cl)ccc34)c3cccc-2c31 (single isomer, unassigned) [Example 296, (+)-7-{3-[(6-chloronaphthalen-1-yl)oxy]propyl}-2,3-dimethyl-2,10,11,12,13,15-hexahydropyrazolo[4′,3′:9,10][1,6]Oxazacycloundecino[8,7,6-hi]indole-8-carboxylic acid-N-ethylethanamine Salt] |  | 5.31e-06 M | 1.43e-05 |  |  | 
0.126 | > 33 | > 33 | 1.9e-05 | 1.33e-05 | 5.16e-06 |  |  |  |  |  |  | Cc1c2c(nn1C)COCCCCn1c(C(=O)O)c(CCCOc3cccc4cc(Cl)ccc34)c3cccc-2c31 (single isomer, unassigned) [Example 297, (−)-7-{3-[(6-chloronaphthalen-1-yl)oxy]propyl}-2,3-dimethyl-2,10,11,12,13,15-hexahydropyrazolo[4′3′:9,10][1,6]oxazacycloundecino[8,7,6-hi]indole-8-carboxylic acid-N-ethylethanamine Salt] | 2.77e-05 | 2.83e-05 M |  |  |  | 
0.166 | > 33 |  |  |  |  | 2.32e-05 | > 33 | 2.63e-05 | 7.39e-06 |  |  | CCc1nn(C)c2c1-c1cccc3c(CCCOc4cccc5c(F)cccc45)c(C(=O)O)n(c13)CCCCOC2 (single isomer, unassigned) [Example 299, 3-ethyl-7-{3-[(5-fluoronaphthalen-1-yl)oxy]propyl}-1-methyl-1,10,11,12,13,15-hexahydropyrazolo[4′,3′:9,10][1,6]oxazacycloundecino[8,7,6-hi]indole-8-carboxylic Acid] |  | > 3.3e-05 M | > 3.3e-05 |  |  | 
0.00127 | 3.93 | 20.7 | 2.15e-05 | > 3.3e-05 | 5.13e-06 |  |  |  |  |  |  | CCc1nn(C)c2c1-c1cccc3c(CCCOc4cccc5c(F)cccc45)c(C(=O)O)n(c13)CCCCOC2 (single isomer, unassigned) [Example 300, 3-ethyl-7-{3-[(5-fluoronaphthalen-1-yl)oxy]propyl}-1-methyl-1,10,11,12,13,15-hexahydropyrazolo[4′3′:9,10][1,6]oxazacycloundecino[8,7,6-hi]indole-Carboxylic Acid] | 2.25e-05 | 5.8e-06 M |  |  |  | 
0.00325 | 3.85 | 9.85 | 2.37e-06 |  |  | 1.66e-05 |  |  |  | 6.7e-06 |  | Cn1nc2c(c1CN1CCOCC1)-c1cccc3c(CCCOc4cccc5ccccc45)c(C(=O)O)n(c13)CCCCOC2 (single isomer, unassigned; enantiomer 1) [Example 079, 2-methyl-3-(morpholin-4-ylmethyl)-7-[3-(naphthalen-1-yloxy)propyl]-2,10,11,12,13,15-hexahydropyrazolo[4′,3′:9,10][1,6]oxazacycloundecino[8,7,6-hi]indole-8-carboxylic acid-N-ethylethanamine Salt (Enantiomer 1)] |  |  |  | 8.83e-06 | 4.24e-06 | 
0.00289 | 5.25 |  | 8.15e-06 |  |  | 2.15e-05 | 19.1 |  |  |  | 1.13e-05 | COCCn1nc(C2CC2)c2c1COCCCCn1c(C(=O)O)c(CCCOc3cccc4c3CCCC4)c3cccc-2c31 (single isomer, unassigned; enantiomer 1) [Example 165, 3-Cyclopropyl-1-(2-methoxyethyl)-7-[3-(5,6,7,8-tetrahydronaphthalen-1-yloxy)propyl]-1,10,11,12,13,15-hexahydropyrazolo[4′,3′:9,10][1,6]oxazacycloundecino[8,7,6-hi]indole-8-carboxylic acid-N-ethylethanamine Salt (Enantiomer 1)] |  |  |  |  | 5.71e-06 | 2.37e-05
0.00165 | 1.33 | 2.49 | 2.83e-06 | 1.03e-05 |  |  |  |  |  | 2e-06 |  | CCc1c2c(nn1CCN1CCOCC1)COCCCCn1c(C(=O)O)c(CCCOc3cccc4ccccc34)c3ccc(C)c-2c31 (single isomer, unassigned; enantiomer 1) [Example 205, 3-ethyl-4-methyl-[2-(2-(morpholin-4-yl)ethyl]-7-[3-(naphthalen-1-yloxy)propyl]-2,10,11,12,13,15-hexahydropyrazolo[4′3′:9,10][1,6]oxazacycloundecino[8,7,6-hi]indole-8-carboxylic Acid (Enantiomer 1)] |  |  |  | 2.92e-06 | 1.38e-06 | 
0.0268 | > 33 | > 33 | 2.61e-05 | 2.4e-05 | 6.97e-06 |  |  |  |  |  |  | Cc1c2c(nn1C)COCCCCn1c(C(=O)O)c(CCCOc3cccc4cc(F)ccc34)c3cccc-2c31 (single isomer, unassigned; enantiomer 1) [Example 303, (−)-7-{3-((6-fluoronaphthalen-1-yl)oxypropyl}-2,3-dimethyl-2,10,11,12,13,15-hexahydropyrazolo[4′,3′:9,10][1,6]oxazacycloundecino[8,7,6-hi]indole-8-carboxylic Acid (Enantiomer 1)] | > 3.3e-05 | > 3.3e-05 M |  |  |  | 
